Test results published in patent publication US5792457A, “Antibody recognizing endothelial cell ligand for leukocyte CR3” (priority 1995, dated 1998).
“Also recorded” adds a separate entry of the source.

Legend:
[1] = target: T1, CD11b/CD18 (Homo sapiens, UniProt P05107+P11215); assay: Downmodulation of CD11b/CD18 on macrophages (binding of C3bi-coated erythrocytes); type: cell-based; conditions: peptides 0.5 mM
T1 construct: peptide-coated wells, C3bi-erythrocyte rosetting
Description: FIG. 27 is a bar graph representation of the downmodμlation of CD11b/CD18 by FHA-peptides. mAb IB4 (50 μg/ml) served as a positive control. Data represent means±standard deviations of triplicate experiments with 6 wells/peptide.
Human monocytes were purified from buffy coats on Percoll gradients and cultured in 12.5% human serum in Teflon beakers. Macrophages were harvested from Teflon beakers after 6-8 days and suspended in HAP buffer. Terasaki wells were coated with 5 μl of peptides (0.5 mM) or anti-CD18 mAb IB4 (50 μg/ml). Control wells were coated with HAP. After 2 hours of incubation at RT, 5 μl of macrophages (5×10^5 /ml HAP) were added and allowed to spread for 45 mins. at 37° C. […] IgM-coated erythrocytes in buffer served as negative control. After washing, the number of erythrocytes bound per 100 leukocytes (adherence index) was quantitated visually under an inverted microscope.

[2] = system: leukocyte migration into the CSF, pneumococcal meningitis; assay: Rabbit model for meningitis: leukocyte migration into CSF; type: in vivo, New Zealand white rabbits; conditions: for mean leukocyte concentration/μl CSF / mean leukocyte density, cells/μl CSF: 7 hours after challenge; for leukocyte migration into the CSF (in words): 0.1 μM (10^-1 μM) i.v.; for leukocyte migration into CSF (in words): 10^-3 μM; for reduction of CSF leukocytosis: intravenous injection; for mean leukocyte density, cells/μl CSF: 1 ml of 1 μM peptide i.v.
Source text: FIG. 20A and B, is a graphical representation of the anti-inflammatory activity of FHA, and FHA- and factor X-derived peptides in experimental bacterial meningitis. FIG. 20 A: FHA .largecircle.; Control .quadrature.. FIG. 20B: FHA peptide Ia .largecircle.; FHA peptide II .box-solid.; Factor X peptide II .tangle-solidup.; scrambled FHA peptide II .circle-solid..
FIG. 21 is a graphical representation of the effect of concentration of peptide on inhibition of leukocyte migration into the CSF. FHA peptide Ia .largecircle., FHA peptide II .box-solid.; Factor X peptide II .tangle-solidup.(n≥4 per group). Two animals received intravenous injections of 10^-1 μM, 2×10^-2 μM or 2×10^-3 μM FHA (.circle-solid.). Values are means±standarddeviations of leukocyte densities at 7 hours after bacterial challenge. The horizontal lines indicate the mean and standard deviation of CSF leukocyte density in 10 control animals which received phosphate buffered saline.
FIG. 22 is a scattergram representation of the effect of variation of the FHA peptide II structure on efficacy of inhibition,of meningeal inflammation. Values are leukocyte densities at 7 hours for individual rabbits. The horizontal lines indicate the mean and standard deviation of CSF leukocyte density in 10 control animals which received phosphate buffered saline.
FIG. 23 is a scattergram representation of the ability of acetyl/amide FHA peptide II to inhibit accumulation of leukocytes in the CSF. Two groups of 10 animals were challenged with pneumococci. One hour later, the animals received an intravenous injection of 10 nmoles of the acetyl/amide peptide (8.2 μg) or phosphate buffered saline. Leukocyte density in CSF was determined 6 hours after pneumococcal challenge.
FIG. 28 is a graphical representation of the effect of FHA peptides on pneumococci induced leukocyte migration into the CSF during pneumococcal meningitis. Data represent mean±standard deviation of leukocyte concentration/μl CSF of at least 4 animals per group. Time is hours after pneumococcal challenge. FHA peptide Ca (.quadrature.); FHA peptide Cb (.largecircle.); FHA peptide Cd (.tangle-solidup.); Control (.diamond-solid.);
FIG. 29 is a graphical representation of a comparison of anti-inflammatory activity of FHA and FHA peptides in experimental meningitis. FHA peptide Ca (.quadrature.); FHA peptide Cb (.largecircle.), ≥ four animals/group; FHA (.tangle-solidup.), two animals/group. Values are means ±standard deviations of leukocyte concentrations/μl CSF at 7 hours after bacterial challenge. The horizontal lines indicate the mean±standard deviation of leukocyte concentrations in 10 control animals which received phosphate buffered saline.
The rabbit model was performed according to an established protocol. Specific pathogen free, New Zealand white rabbits (2 kg; Hare Marland, Nutley, N.J.) were anesthetized with valium (2.5 mg/kg, subcutaneously, Hoffman-LaRoche, Nutley, N.J.), ketamine (35 mg/kg, intra-muscularly, Aveco, Fort Dodge, Iowa) and xylazine (5 mg/kg, intramuscularly, Miles Laboratories, Shawnee, Kans.) and a helmet of dental acrylic was affixed to the calvarium. Twenty four hours later, the rabbits were anesthetized with ethyl carbamate (1.75 g/kg; Aldrich Chemical Co., Milwaukee, Wis.) and pentobarbital (15 mg/kg; Abbott Laboratories, Abbott Park, Ill.) and placed in a stereotaxic frame. A spinal needle was introduced into the cisterna magna and 300 μl of CSF was withdrawn. The animals were challenged intracisternally with 10^8 heat killed, unencapsulated pneumococcus strain R6 introduced in 200 μl of saline (time 0). One hour later, animals were treated with peptides dissolved in 1 ml of saline by intravenous injection into the right marginal ear vein. The concentration of FHA was 0.1 μM and that of the FHA Ia, Factor X II, and scrambled FHA II peptides was 10 μM. For the acetyl-FHA II, acetyl/amide-FHA II, dimer of FHA II and trimer of FHA II peptides, the concentration was 10^-3 μM. […]

T1 sequence (P05107 23-769, other chains not shown): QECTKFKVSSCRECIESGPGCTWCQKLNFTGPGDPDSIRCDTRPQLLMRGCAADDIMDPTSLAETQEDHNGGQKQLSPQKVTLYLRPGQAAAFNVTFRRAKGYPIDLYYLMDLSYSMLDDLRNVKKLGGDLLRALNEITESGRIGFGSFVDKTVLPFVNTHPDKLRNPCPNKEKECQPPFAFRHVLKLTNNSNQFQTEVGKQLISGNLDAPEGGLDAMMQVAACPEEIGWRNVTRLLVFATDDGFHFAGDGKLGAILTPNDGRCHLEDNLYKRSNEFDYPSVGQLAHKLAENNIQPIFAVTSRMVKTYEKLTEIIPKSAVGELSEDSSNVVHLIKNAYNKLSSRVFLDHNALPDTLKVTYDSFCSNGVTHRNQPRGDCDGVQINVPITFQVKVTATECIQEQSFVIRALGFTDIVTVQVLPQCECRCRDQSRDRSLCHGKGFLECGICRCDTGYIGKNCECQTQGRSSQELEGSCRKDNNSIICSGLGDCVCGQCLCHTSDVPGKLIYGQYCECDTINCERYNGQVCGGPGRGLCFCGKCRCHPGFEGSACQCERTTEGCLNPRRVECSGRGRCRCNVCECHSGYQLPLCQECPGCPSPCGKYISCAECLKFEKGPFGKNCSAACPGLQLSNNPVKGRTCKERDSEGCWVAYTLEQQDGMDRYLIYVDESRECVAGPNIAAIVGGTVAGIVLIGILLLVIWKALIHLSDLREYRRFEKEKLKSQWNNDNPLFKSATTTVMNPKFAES

## AADPHQGVLAQGDIIMDAKG [FHA Cc]
[1]
  downmodulation of CD11b/CD18 (in words): no significant effect

## Ac-ETKEVDG-NH2 [Acetyl/Amide-FHA II]
[2]; 10 nmoles i.v., 6 hours post-pneumococcal challenge, n=10
  leukocyte migration into the CSF: 3011±684 cells/μl

## DEETVK [scrambled FHA II, reference compound]
[2]; peptides 10 μM
  CSF leukocytosis (in words): ineffective
[2]; peptides 10 μM i.v.
  mean leukocyte concentration/μl CSF: 6431±1380 /μl CSF

## ETKEVDG [FHA II]
[2]; listed as FHA peptide II
  leukocyte migration into the CSF (in words): statistically significantly different from control at p<0.02; also recorded: more potent anti-inflammatory activity than the corresponding Factor X peptide II
[2]
  leukocyte migration into CSF (in words): ineffective
  reduction of CSF leukocytosis: > 60%
[2]; peptides 10 μM i.v.
  mean leukocyte concentration/μl CSF: 2645 ±1412 /μl CSF

## GTLLLRNDALTENGTVTISA [FHA Cd]
[2]; 1 μM peptide
  leukocyte recruitment into the CSF (in words): no effect on the leukocyte recruitment into the CSF
[1]
  downmodulation of CD11b/CD18 (in words): no significant effect

## GYDTKQEDG [Factor X II]
[2]
  reduction of CSF leukocytosis: > 60%
[2]; peptides 10 μM i.v.
  mean leukocyte concentration/μl CSF: 1622±521 /μl CSF

## LGYQAK (UniProt P12255 1979-1984, looked up, fragment) [FHA Ia]
[2]
  reduction of CSF leukocytosis: > 60%
[2]; peptides 10 μM i.v.
  mean leukocyte concentration/μl CSF: 1640±1210 /μl CSF

## RADPHQGVLAQGDIIMDAKG [FHA Cb]
[2]
  leukocyte migration into the CSF (in words): ineffective at this dose
  mean leukocyte density, cells/μl CSF: 2788±1022 cells/μl CSF
[1]
  downmodulation of CD11b/CD18 (in words): no significant effect

## RGDPHQGVLAQGDIIMDAKG [FHA Ca]
[2]
  leukocyte migration into the CSF (in words): still significantly reduced leukocyte migration into the CSF
  mean leukocyte density, cells/μl CSF: 2137±1498 cells/μl CSF
[1]; IB4 50 μg/ml
  reduction of binding of C3bi-coated erythrocytes to macrophages: 61±7%

## native FHA: Filamentous hemagglutinin, 220kD surface associated protein of Bordetella pertussis (List Biologicals)
[2]; listed as FHA
  leukocyte migration into the CSF (in words): statistically significantly different from control at p<0.05; also recorded: more potent anti-inflammatory activity than the corresponding Factor X peptide II
[2]
  leukocyte migration into CSF (in words): ineffective
  reduction of CSF leukocytosis: > 60%
[2]; FHA 25 μg, 0.1 μM i.v.
  mean leukocyte concentration/μl CSF: 2096±450 /μl CSF
